# The source made the active and inactive calls. The rule behind the calls is not given here.
# System: CCRIS mutagenicity, Ames/micronucleus/aberration tests
# Experiment: CCRIS mutagenicity studies
# [1] = Test System: AMES SALMONELLA TYPHIMURIUM, Strain/Indicator: TA98, Metabolic Activation: NONE, Method: STANDARD PLATE
# [2] = Test System: AMES SALMONELLA TYPHIMURIUM, Strain/Indicator: TA100, Metabolic Activation: NONE, Method: STANDARD PLATE
smiles,measurement,setting,value
CN(C)CCCCl,mutagenic call,"Test System: AMES SALMONELLA TYPHIMURIUM, Strain/Indicator: TA98, Metabolic Activation: HAMSTER, LIVER, S-9, AROCLOR 1254, Method: STANDARD PLATE",inactive; negative
same,mutagenic call,[1],inactive; negative
same,mutagenic call,"Test System: AMES SALMONELLA TYPHIMURIUM, Strain/Indicator: TA98, Metabolic Activation: RAT, LIVER, S-9, AROCLOR 1254, Method: STANDARD PLATE",inactive; negative
same,mutagenic call,"Test System: AMES SALMONELLA TYPHIMURIUM, Strain/Indicator: TA100, Metabolic Activation: HAMSTER, LIVER, S-9, AROCLOR 1254, Method: STANDARD PLATE",active; positive
same,mutagenic call,[2],active; positive
same,mutagenic call,"Test System: AMES SALMONELLA TYPHIMURIUM, Strain/Indicator: TA100, Metabolic Activation: RAT, LIVER, S-9, AROCLOR 1254, Method: STANDARD PLATE",active; positive
same,mutagenic call,"Test System: MOUSE LYMPHOMA, Strain/Indicator: L5178Y (TK+/TK-), Metabolic Activation: NONE, Method: SUSPENSION/PLATE",inactive; positive. reevaluation of results: negative
same,mutagenic call,"Test System: MOUSE LYMPHOMA, Strain/Indicator: L5178Y (TK+/TK-), Metabolic Activation: RAT, LIVER, S-9, AROCLOR 1254, Method: SUSPENSION/PLATE",active; positive. reevaluation of results: inconclusive
Fc1ccc2cccnc2c1F,mutagenic call,"Test System: AMES SALMONELLA TYPHIMURIUM, Strain/Indicator: TA100, Metabolic Activation: RAT LIVER S-9, PHENOBARBITAL AND 5,6-BENZOFLAVONE, Method: PREINCUBATION",active; positive
O=C(Cn1c(=O)sc2ccccc21)OCc1ccccc1,mutagenic call,"Test System: AMES SALMONELLA TYPHIMURIUM, Strain/Indicator: TA97, Metabolic Activation: NONE, Method: STANDARD PLATE",inactive; negative
same,mutagenic call,"Test System: AMES SALMONELLA TYPHIMURIUM, Strain/Indicator: TA97, Metabolic Activation: RAT, LIVER, S-9, DELOR 103, Method: STANDARD PLATE",inactive; negative
same,mutagenic call,[1],inactive; negative
same,mutagenic call,"Test System: AMES SALMONELLA TYPHIMURIUM, Strain/Indicator: TA98, Metabolic Activation: RAT, LIVER, S-9, DELOR 103, Method: STANDARD PLATE",inactive; negative
same,mutagenic call,[2],inactive; negative
same,mutagenic call,"Test System: AMES SALMONELLA TYPHIMURIUM, Strain/Indicator: TA100, Metabolic Activation: RAT, LIVER, S-9, DELOR 103, Method: STANDARD PLATE",inactive; negative
same,mutagenic call,"Test System: AMES SALMONELLA TYPHIMURIUM, Strain/Indicator: TA1535, Metabolic Activation: NONE, Method: STANDARD PLATE",inactive; negative
same,mutagenic call,"Test System: AMES SALMONELLA TYPHIMURIUM, Strain/Indicator: TA1535, Metabolic Activation: RAT, LIVER, S-9, DELOR 103, Method: STANDARD PLATE",inactive; negative
same,mutagenic call,"Test System: AMES SALMONELLA TYPHIMURIUM, Strain/Indicator: TA1538, Metabolic Activation: NONE, Method: STANDARD PLATE",inactive; negative
same,mutagenic call,"Test System: AMES SALMONELLA TYPHIMURIUM, Strain/Indicator: TA1538, Metabolic Activation: RAT, LIVER, S-9, DELOR 103, Method: STANDARD PLATE",inactive; negative
Cc1ccc(C)o1,mutagenic call,"Test System: AMES SALMONELLA TYPHIMURIUM, Strain/Indicator: TA97, Metabolic Activation: HAMSTER, LIVER, S-9, AROCLOR 1254 (10%), Method: PREINCUBATION",inactive; negative
same,mutagenic call,"Test System: AMES SALMONELLA TYPHIMURIUM, Strain/Indicator: TA97, Metabolic Activation: HAMSTER, LIVER, S-9, AROCLOR 1254 (30%), Method: PREINCUBATION",inactive; negative
same,mutagenic call,"Test System: AMES SALMONELLA TYPHIMURIUM, Strain/Indicator: TA97, Metabolic Activation: NONE, Method: PREINCUBATION",inactive; negative
same,mutagenic call,"Test System: AMES SALMONELLA TYPHIMURIUM, Strain/Indicator: TA97, Metabolic Activation: RAT, LIVER, S-9, AROCLOR 1254 (10%), Method: PREINCUBATION",inactive; negative
same,mutagenic call,"Test System: AMES SALMONELLA TYPHIMURIUM, Strain/Indicator: TA97, Metabolic Activation: RAT, LIVER, S-9, AROCLOR 1254 (30%), Method: PREINCUBATION",inactive; negative
same,mutagenic call,"Test System: AMES SALMONELLA TYPHIMURIUM, Strain/Indicator: TA98, Metabolic Activation: HAMSTER, LIVER, S-9, AROCLOR 1254 (10%), Method: PREINCUBATION",inactive; negative
same,mutagenic call,"Test System: AMES SALMONELLA TYPHIMURIUM, Strain/Indicator: TA98, Metabolic Activation: HAMSTER, LIVER, S-9, AROCLOR 1254 (30%), Method: PREINCUBATION",inactive; negative
same,mutagenic call,"Test System: AMES SALMONELLA TYPHIMURIUM, Strain/Indicator: TA98, Metabolic Activation: NONE, Method: PREINCUBATION",inactive; negative
same,mutagenic call,[1],inactive; negative
same,mutagenic call,"Test System: AMES SALMONELLA TYPHIMURIUM, Strain/Indicator: TA98, Metabolic Activation: RAT, LIVER, S-9, AROCLOR 1254 (10%), Method: PREINCUBATION",inactive; negative
same,mutagenic call,"Test System: AMES SALMONELLA TYPHIMURIUM, Strain/Indicator: TA98, Metabolic Activation: RAT, LIVER, S-9, AROCLOR 1254 (30%), Method: PREINCUBATION",inactive; negative
same,mutagenic call,"Test System: AMES SALMONELLA TYPHIMURIUM, Strain/Indicator: TA98, Metabolic Activation: S-9, Method: STANDARD PLATE",inactive; negative
same,mutagenic call,"Test System: AMES SALMONELLA TYPHIMURIUM, Strain/Indicator: TA100, Metabolic Activation: HAMSTER, LIVER, S-9, AROCLOR 1254 (10%), Method: PREINCUBATION",inactive; negative
same,mutagenic call,"Test System: AMES SALMONELLA TYPHIMURIUM, Strain/Indicator: TA100, Metabolic Activation: HAMSTER, LIVER, S-9, AROCLOR 1254 (30%), Method: PREINCUBATION",inactive; negative
same,mutagenic call,"Test System: AMES SALMONELLA TYPHIMURIUM, Strain/Indicator: TA100, Metabolic Activation: NONE, Method: PREINCUBATION",inactive; negative
same,mutagenic call,[2],inactive; negative
same,mutagenic call,"Test System: AMES SALMONELLA TYPHIMURIUM, Strain/Indicator: TA100, Metabolic Activation: RAT, LIVER, S-9, AROCLOR 1254 (10%), Method: PREINCUBATION",inactive; negative
same,mutagenic call,"Test System: AMES SALMONELLA TYPHIMURIUM, Strain/Indicator: TA100, Metabolic Activation: RAT, LIVER, S-9, AROCLOR 1254 (30%), Method: PREINCUBATION",inactive; negative
same,mutagenic call,"Test System: AMES SALMONELLA TYPHIMURIUM, Strain/Indicator: TA100, Metabolic Activation: S-9, Method: STANDARD PLATE",inactive; negative
same,mutagenic call,"Test System: AMES SALMONELLA TYPHIMURIUM, Strain/Indicator: TA1535, Metabolic Activation: HAMSTER, LIVER, S-9, AROCLOR 1254 (10%), Method: PREINCUBATION",inactive; negative
same,mutagenic call,"Test System: AMES SALMONELLA TYPHIMURIUM, Strain/Indicator: TA1535, Metabolic Activation: HAMSTER, LIVER, S-9, AROCLOR 1254 (30%), Method: PREINCUBATION",inactive; negative
same,mutagenic call,"Test System: AMES SALMONELLA TYPHIMURIUM, Strain/Indicator: TA1535, Metabolic Activation: NONE, Method: PREINCUBATION",inactive; negative
same,mutagenic call,"Test System: AMES SALMONELLA TYPHIMURIUM, Strain/Indicator: TA1535, Metabolic Activation: RAT, LIVER, S-9, AROCLOR 1254 (10%), Method: PREINCUBATION",inactive; negative
same,mutagenic call,"Test System: AMES SALMONELLA TYPHIMURIUM, Strain/Indicator: TA1535, Metabolic Activation: RAT, LIVER, S-9, AROCLOR 1254 (30%), Method: PREINCUBATION",inactive; negative
COc1cc(O)c2c(=O)c3c(OC)cc4c(c3oc2c1OC)[C@@H]1C=CO[C@@H]1O4,mutagenic call,"Test System: AMES SALMONELLA TYPHIMURIUM, Strain/Indicator: TA98, Metabolic Activation: RAT, LIVER, S-9, PHENOBARBITAL, Method: STANDARD PLATE",inactive; negative
same,mutagenic call,"Test System: AMES SALMONELLA TYPHIMURIUM, Strain/Indicator: TA100, Metabolic Activation: RAT, LIVER, S-9, PHENOBARBITAL, Method: STANDARD PLATE",active; positive
CC(C)CCCC(C)C1CCC2C3CC=C4CC(OCCO)CCC4(C)C3CCC12C (centres undefined),mutagenic call,[1],inactive; negative
same,mutagenic call,"Test System: AMES SALMONELLA TYPHIMURIUM, Strain/Indicator: TA98, Metabolic Activation: RAT, LIVER, MICROSOMES, Method: STANDARD PLATE",inactive; negative
same,mutagenic call,[2],inactive; negative
same,mutagenic call,"Test System: AMES SALMONELLA TYPHIMURIUM, Strain/Indicator: TA100, Metabolic Activation: RAT, LIVER, MICROSOMES, Method: STANDARD PLATE",inactive; negative

# Source: PubChem BioAssay AID1259407 (Chemical Carcinogenesis Research Information System (CCRIS), 2018)
